Laboratory results as given in patent US9434687B2, “Detection of synthetic cannabinoids” (priority 2011, dated 2016).
Where a name gives a salt, the structure may show the parent alone. Read-outs that look alike come from different tables or passages of the source.

How the values were obtained:
Format in all cases: binding, sheep
[1] = system: IgG fraction of antiserum raised to Immunogen II; assay: Competitive ELISA, antibody RS1833B12 to Immunogen II, tracer ESC4555 (Example 36); details: Antibody to Immunogen II; cross-reactants at 100 ng/ml; 1000 ng/ml; standard JWH-018
Protocol: (§1) An aqueous solution of each immunogen was formulated with Freund's Complete Adjuvant (FCA) to form an emulsion consisting of 2 mg/ml*immunogen in 50% (v/v) FCA. Three sheep were immunised with this emulsion (1° immunisation), 0.25 ml being intramuscularly injected at each of four sites in the flank of each animal. Subsequent immunizations (boosts) contained 1 mg/ml*immunogen. All boosts were emulsified in 50% (v/v) Freund's Incomplete Adjuvant (FIA) and were administered in the same manner as the 1° immunisation, at monthly intervals. Blood sampling took place 7 to 14 days after each boost. *The general procedure for immunogen administration is outlined above, however, it was necessary to deviate from this protocol in some cases, due to reduced immunogen concentrations (Immunogens II, IV, VII and VIII) and/or amount available (Immunogen VIII). Any deviations from the protocol described are outlined in Table 5 below and highlighted in bold.
The appropriate antibody coating dilution was determined using standard ELISA checkerboard techniques. The plate was incubated overnight at 4° C., washed 4 times over 10 minutes with Tris buffered saline containing Tween 20 (TBST) and tapped dry. […] 75 μl of conjugate (appropriate hapten-HRP) diluted in Tris buffer (pH 7.2) containing EDTA, D-mannitol, sucrose, thimerosal and BSA, was added to each of the wells. The appropriate dilution of conjugate was also determined using standard ELISA checkerboard techniques. The plate was incubated at 25° C. for 1 hour. Excess unbound conjugate was removed by washing 6 times over a 10 minute period with TBST. 125 μl of tetramethylbenzidine (TMB) substrate solution was added to each well of the plate that was then incubated for 20 minutes in the dark at room temperature. The reaction was terminated by addition of 125 μl 0.2M H2SO4 to each well. The absorbance was then measured at 450 nm using a microtiter plate reader. The data are inputted to a computer program called ‘KC Junior’. It is a 4 parameter fit curve and allow the calculation of concentrations between the standard runs.
In a similar manner to that described above, the wells of a 96-well microtiter plate were coated with the IgG fraction of the antiserum raised to Immunogens I or II.
(§2) The data set out in Tables 7-10 are generated using antibodies raised against the indicated Immunogens in a competitive binding assay with the indicated tracers, using the indicated standards
(§3) Using the calibration curves generated and employing a single level of cross reactants, these were used to determine the cross-reactivity of each immunoassay with these substances. These are the standards used for the IC50 and cross-reactivity data generation: […]

[2] = system: IgG fraction of antiserum raised to Immunogen I
Protocol: as §1
(§4) The wells of an enhanced binding 96 well polystyrene microtiter plate were coated with IgG fraction of antiserum raised to Immunogen I or II, diluted in 10 mM Tris, pH8.5 (125 μl/well). The appropriate antibody coating dilution was determined using standard ELISA checkerboard techniques. The plate was incubated overnight at 4° C., washed 4 times over 10 minutes with Tris buffered saline containing Tween 20 (TBST) and tapped dry. Standard solutions (JWH-018 for Immunogens I and II) were applied at 0, 0.625, 1.25, 2.5, 5, 10, 20 and 40 ng/ml and 50 μl of each was added to the appropriate wells. 75 μl of conjugate (appropriate hapten-HRP) diluted in Tris buffer (pH 7.2) containing EDTA, D-mannitol, sucrose, thimerosal and BSA, was added to each of the wells. The appropriate dilution of conjugate was also determined using standard ELISA checkerboard techniques. The plate was incubated at 25° C. for 1 hour. Excess unbound conjugate was removed by washing 6 times over a 10 minute period with TBST. 125 μl of tetramethylbenzidine (TMB) substrate solution was added to each well of the plate that was then incubated for 20 minutes in the dark at room temperature. The reaction was terminated by addition of 125 μl 0.2M H2SO4 to each well. The absorbance was then measured at 450 nm using a microtiter plate reader. The data are inputted to a computer program called ‘KC Junior’. It is a 4 parameter fit curve and allow the calculation of concentrations between the standard runs. This program is used to calculate the IC50s by dividing the 0 ng/ml OD value by 2 and obtaining the concentration value from the curve for this OD.
In a similar manner to that described above, the wells of a 96-well microtiter plate were coated with the IgG fraction of the antiserum raised to Immunogens I or II. Standard solutions (JWH-018 for Immunogen I and II) were applied at 0, 0.625, 1.25, 2.5, 5, 10, 20 and 40 ng/ml and conjugate was employed as detection reagent.
as §2
(§5) In order to determine the specificity of the competitive ELISAs, standard solutions of a range of structurally similar synthetic cannabinoids and their metabolites were prepared in TBST.
as §3

[3] = system: IgG fraction of antiserum raised to Immunogen VII
Protocol: as §1, §4
(§6) In a similar manner to that described above, the wells of a 96-well microtiter plate were coated with the IgG fraction of the antiserum raised to Immunogens IV, VII or VIII. Standard solutions (JWH-018 for Immunogens IV and VIII, JWH-015 for Immunogen VII) were prepared in TBST at 0, 1.25, 2.5, 5, 10, 20, 40 and 80 ng/ml and conjugate was employed as detection reagent.
as §2, §5, §3

[4] = system: IgG fraction of antiserum raised to Immunogen IV
Protocol: as §1, §4, §6, §2, §5, §3

[5] = system: IgG fraction of antiserum raised to Immunogen VIII
Protocol: as §1, §4, §6, §2, §5, §3

[6] = Antibody to Immunogen I, cross-reactants at 100 ng/ml, 1000 ng/ml, standard JWH-018
[7] = Antibody to Immunogen VII, cross-reactants at 100 ng/ml, 1000 ng/ml, standard JWH-015
[8] = Antibody to Immunogen IV, cross-reactants at 100 ng/ml, 1000 ng/ml, standard JWH-018
[9] = Antibody to Immunogen VIII, cross-reactants at 100 ng/ml, 1000 ng/ml, standard JWH-018

Compound | % B/B0 [1] | % B/B0 [2, 6] | % B/B0 [3, 7] | % B/B0 [4, 8] | % B/B0 [5, 9] | % B/B0 [2] | % B/B0 [3] | % B/B0 [4] | % B/B0 [5]
CC(O)CCCn1cc(C(=O)c2cccc3ccccc23)c2ccccc21 (racemic) [(±)-JWH 018 N-(4-hydroxypentyl) metabolite] | 53.99% | 4.23% | 57.37% | 52.29% | 21.94% | – | – | – | –
CC(F)CCCn1cc(C(=O)c2cccc3ccccc23)c2ccccc21 (single isomer, unassigned) [AM-2201 N-(4-fluoropentyl) isomer] | 14.60% | 3.45% | 52.70% | 5.72% | 15.00% | – | – | – | –
CC(C)C(C)n1cc(C(=O)c2cccc3ccccc23)c2ccccc21 (single isomer, unassigned) [JWH 018 N-(1,2-dimethylpropyl) isomer] | 71.33% | 6.60% | 62.29% | 87.11% | 67.71% | – | – | – | –
CCCCCn1cc(C(=O)Cc2ccccc2Cl)c2ccccc21 [JWH-203] | – | 72.55% | 99.08% | 52.15% | 9.19% | – | – | – | –
CCCCCn1cc(C(=O)Cc2ccc(Cl)cc2)c2ccccc21 [JWH-206, JWH-203 4-chloro isomer] | – | 75.96% | 97.17% | 65.63% | 10.55% | – | – | – | –
CCCCCn1cc(C(=O)c2c(CC)ccc3ccccc23)c2ccccc21 [JWH-210 2-ethylnaphthyl isomer] | – | 81.37% | 96.13% | 53.97% | 73.51% | – | – | – | –
CCCCCn1cc(C(=O)c2ccc(CC)c3ccccc23)c2cc(O)ccc21 [JWH-210 5-hydroxyindole metabolite] | – | 83.29% | 100.43% | 48.91% | 87.72% | – | – | – | –
CCCCCn1cc(C(=O)c2cccc3ccc(CC)cc23)c2ccccc21 [JWH-210 7-ethylnaphthyl isomer] | – | 73.11% | 100.55% | 27.07% | 50.90% | – | – | – | –
CCc1ccc(C(=O)c2cn(CCCCCC(=O)O)c3ccccc23)c2ccccc12 [JWH-210 N-(5-carboxypentyl) metabolite] | – | 76.77% | 96.07% | 85.29% | 96.27% | – | – | – | –
CCCCCn1cc(C(=O)c2ccc(CC)c3ccccc23)c2ccccc21 [JWH-210] | – | 91.18% | 96.62% | 5.53% | 16.87% | – | – | – | –
CCCCCn1cc(C(=O)Cc2ccccc2OC)c2ccccc21 [JWH-250] | – | 78.94% | 97.23% | 41.08% | 9.40% | – | – | – | –
CCCCCn1cc(C(=O)Cc2ccccc2C)c2ccccc21 [JWH-251] | – | 68.01% | 96.74% | 42.02% | 9.12% | – | – | – | –
CCCCCn1cc(C(=O)Cc2cccc(OC)c2)c2ccccc21 [JWH-302] | – | 84.66% | 104.92% | 45.67% | 7.97% | – | – | – | –
CCCCCn1cc(C(=O)c2cccc(OC)c2)c2ccccc21 [RCS-4 3-methoxy isomer] | – | 31.19% | 94.72% | 25.65% | 10.95% | – | – | – | –
COc1ccc(C(=O)c2cn(CCCC(C)O)c3ccccc23)cc1 (stereo not shown) [RCS-4 N-(4-hydroxypentyl) metabolite] | – | 65.71% | 95.72% | 59.16% | 8.89% | – | – | – | –
COc1ccc(C(=O)c2cn(CCCCCC(=O)O)c3ccccc23)cc1 [RCS-4 N-(5-carboxypentyl) metabolite] | – | 77.12% | 94.00% | 91.44% | 91.97% | – | – | – | –
COc1ccc(C(=O)c2cn(CCCCCO)c3ccccc23)cc1 [RCS-4 N-(5-hydroxypentyl) metabolite] | – | 59.51% | 94.55% | 61.03% | 19.13% | – | – | – | –
CCCCn1cc(C(=O)c2ccc(OC)cc2)c2ccccc21 [RCS-4-C4 homologue] | – | 76.27% | 100.20% | 27.17% | 9.54% | – | – | – | –
CCCCCn1cc(C(=O)c2ccc(OC)cc2)c2ccccc21 [RCS-4] | – | 80.46% | 93.51% | 19.21% | 5.93% | – | – | – | –
COc1cccc(CC(=O)c2cn(CCC3CCCCC3)c3ccccc23)c1 [RCS-8 3-methoxy isomer] | – | 93.24% | 93.73% | 89.43% | 83.62% | – | – | – | –
COc1ccc(CC(=O)c2cn(CCC3CCCCC3)c3ccccc23)cc1 [RCS-8 4-methoxy isomer] | – | 94.94% | 98.21% | 90.78% | 100.72% | – | – | – | –
COc1ccccc1CC(=O)c1cn(CCC2CCCCC2)c2ccccc12 [RCS-8] | – | 82.65% | 94.57% | 85.50% | 88.79% | – | – | – | –
NCCc1c[nH]c2ccc(O)cc12 [Serotonin HCl] | – | 99.65% | 99.83% | 95.40% | 100.36% | – | – | – | –
COc1ccc(C(=O)c2c(C)n(CCN3CCOCC3)c3ccccc23)cc1 [WIN-48,098, Pravadoline] | – | 90.05% | 92.41% | 91.64% | 97.90% | – | – | – | –
CS(=O)(=O)O.Cc1c(C(=O)c2cccc3ccccc23)c2cccc3c2n1[C@@H](CN1CCOCC1)CO3 [Win 55,212-3 mesylate] | – | 34.00% | 32.31% | 94.57% | 101.30% | – | – | – | –
(+)-CP 55,940 | – | 103.25% | 97.15% | 91.38% | 95.12% | – | – | – | –
(−)-11-nor-9-Carboxy-delta9-THC | – | – | – | – | – | 100.47% | 98.72% | 93.08% | 103.36%
(−)-CP 55,940 | – | 98.27% | 101.15% | 93.02% | 97.58% | – | – | – | –
